In ChEMBL document CHEMBL5252560 (Bioorg Med Chem Lett, 2023):
pIC50: −log10 of the molar value. Active and inactive are the calls of the source. The calls are words filed in the database; no cut-off is given here.

How the values were obtained:
Y79 = assay: Antiproliferative activity against human Y79 cells assessed as cell growth inhibition; type: functional, cell-based
HepG2 [1] = assay: Induction of cell cycle arrest in human HepG2 cells assessed as accumulation of cells at G2 phase at 25 nM by propidium iodide staining based flow cytometric analysis (reference value: 8.58%); type: functional
HepG2 [2] = assay: Induction of cell cycle arrest in human HepG2 cells assessed as accumulation of cells at S phase at 50 nM by propidium iodide staining based flow cytometric analysis (reference value: 19.34%); type: functional
HepG2 [3] = assay: Induction of cell cycle arrest in human HepG2 cells assessed as accumulation of cells at S phase at 50 nM incubated for 6 hrs by propidium iodide staining based flow cytometric analysis (reference value: 22.36%); type: functional
HepG2 [4] = assay: Induction of cell cycle arrest in human HepG2 cells assessed as accumulation of cells at G1 phase at 50 nM incubated for 6 hrs by propidium iodide staining based flow cytometric analysis (reference value: 62.58%); type: functional
HepG2 [5] = assay: Induction of cell cycle arrest in human HepG2 cells assessed as accumulation of cells at G1 phase at 50 nM by propidium iodide staining based flow cytometric analysis (reference value: 72.08 %); type: functional
HepG2 [6] = assay: Induction of cell cycle arrest in human HepG2 cells assessed as accumulation of cells at G2 phase at 100 nM by propidium iodide staining based flow cytometric analysis (reference value: 8.58%); type: functional
Tubulin (Homo sapiens) [7] = target: T1, Tubulin (Homo sapiens) (UniProt P68371+Q9H4B7+P0DPH7+P68366+Q13509+Q71U36+P04350+Q3ZCM7+P07437+P68363+Q9BQE3+Q6PEY2+Q13885+Q9BVA1+Q9BUF5); assay: Disruption of microtubule assembly in human HepG2 cells assessed as loss of microtubule structure at 100 nM by immunofluorescence analysis; type: cell-based
A549 = assay: Antiproliferative activity against human A549 cells assessed as cell growth inhibition; type: functional, cell-based
HepG2 [8] = assay: Induction of cell cycle arrest in human HepG2 cells assessed as accumulation of cells at S phase at 25 nM by propidium iodide staining based flow cytometric analysis (reference value: 19.34%); type: functional
U-937 = assay: Antiproliferative activity against human U-937 cells assessed as cell growth inhibition; type: functional, cell-based
HepG2 [9] = assay: Induction of apoptosis in human HepG2 cells by AnnexinV-FITC/PI-staining based flow cytometry; type: functional, cell-based; details: dose 25-100 nM
Tubulin (Homo sapiens) [10] = target: T1, Tubulin (Homo sapiens); assay: Inhibition of tubulin (unknown origin) polymerization assessed as reduction in fluorescence intensity at 4 uM; type: protein-complex assay
HepG2 [11] = assay: Induction of cell cycle arrest in human HepG2 cells assessed as accumulation of cells at G1 phase at 50 nM incubated for 24 hrs by propidium iodide staining based flow cytometric analysis (reference value: 62.58%); type: functional
HepG2 [12] = assay: Induction of cell cycle arrest in human HepG2 cells assessed as accumulation of cells at G2 phase at 50 nM incubated for 6 hrs by propidium iodide staining based flow cytometric analysis (reference value: 15.06%); type: functional
Tubulin (Homo sapiens) [13] = target: T1, Tubulin (Homo sapiens); assay: Disruption of microtubule assembly in human HepG2 cells assessed as changes in cell morphology at 100 nM by immunofluorescence analysis; type: cell-based
HepG2 [14] = assay: Induction of cell cycle arrest in human HepG2 cells assessed as accumulation of cells at S phase at 100 nM by propidium iodide staining based flow cytometric analysis (reference value: 19.34%); type: functional
HepG2 [15] = assay: Induction of cell cycle arrest in human HepG2 cells assessed as accumulation of cells at G1 phase at 25 nM by propidium iodide staining based flow cytometric analysis (reference value: 72.08 %); type: functional
HepG2 [16] = assay: Induction of cell cycle arrest in human HepG2 cells assessed as accumulation of cells at S phase at 50 nM incubated for 24 hrs by propidium iodide staining based flow cytometric analysis (reference value: 22.36%); type: functional
HepG2 [17] = assay: Induction of cell cycle arrest in human HepG2 cells assessed as accumulation of cells at G1 phase at 50 nM incubated for 12 hrs by propidium iodide staining based flow cytometric analysis (reference value: 62.58%); type: functional
HepG2 [18] = assay: Antiproliferative activity against human HepG2 cells assessed as cell growth inhibition; type: functional, cell-based
HepG2 [19] = assay: Induction of cell cycle arrest in human HepG2 cells assessed as accumulation of cells at G2 phase at 50 nM incubated for 12 hrs by propidium iodide staining based flow cytometric analysis (reference value: 15.06%); type: functional
HepG2 [20] = assay: Induction of cell cycle arrest in human HepG2 cells assessed as accumulation of cells at S phase at 50 nM incubated for 12 hrs by propidium iodide staining based flow cytometric analysis (reference value: 22.36%); type: functional
HepG2 [21] = assay: Induction of cell cycle arrest in human HepG2 cells assessed as accumulation of cells at G2 phase at 50 nM by propidium iodide staining based flow cytometric analysis (reference value: 8.58%); type: functional
HepG2 [22] = assay: Inhibition of cell migration in human HepG2 cells at 25 to 100 nM incubated for 48 hrs by wound healing assay; type: functional, cell-based; details: dose 25-100 nM
HepG2 [23] = assay: Induction of cell cycle arrest in human HepG2 cells assessed as accumulation of cells at G1 phase at 100 nM by propidium iodide staining based flow cytometric analysis (reference value: 72.08 %); type: functional
HepG2 [24] = assay: Induction of cell cycle arrest in human HepG2 cells assessed as accumulation of cells at G2 phase at 50 nM incubated for 24 hrs by propidium iodide staining based flow cytometric analysis (reference value: 15.06%); type: functional
HepG2 [25] = assay: Inhibition of cell invasion in human HepG2 cells by transwell invasion assay; type: functional, cell-based; details: dose 25-100 nM

Activity (Tubulin (Homo sapiens) [7]): Active | pIC50 (A549): 6.57 | pIC50 (U-937): 6.86 | inhibition (Tubulin (Homo sapiens) [10]): Active | Activity (Tubulin (Homo sapiens) [13]): Active | pIC50 (HepG2 [18]): 7.19
SMILES: COc1cc(C(/C=C/c2ccc3[nH]ccc3c2)=N/O)cc(OC)c1OC
pIC50 (Y79): 6.60 | Activity (HepG2 [1]): 23.54% | Activity (HepG2 [2]): 4.81% | Activity (HepG2 [3]): 18.56% | Activity (HepG2 [4]): 63.46% | Activity (HepG2 [5]): 56.33% | Activity (HepG2 [6]): 70.39% | Activity (HepG2 [8]): 4.78% | Activity (HepG2 [9]): Dose-Dependent Effect | Activity (HepG2 [11]): 60.13% | Activity (HepG2 [12]): 17.98% | Activity (HepG2 [14]): 23.61% | Activity (HepG2 [15]): 71.68% | Activity (HepG2 [16]): 26.95% | Activity (HepG2 [17]): 56.18% | Activity (HepG2 [19]): 25.73% | Activity (HepG2 [20]): 17.79% | Activity (HepG2 [21]): 38.86% | inhibition (HepG2 [22]): Active | Activity (HepG2 [23]): 6% | Activity (HepG2 [24]): 26.95% | inhibition (HepG2 [25]): Dose-Dependent Effect
